Data on three molecules can be found in US9468621B2, “Metal-salen complex compound responsive drug and intra-corporeal behavior control system for metal-salen complex compound” (IHI Corporation, priority 2011, dated 2016).

In series [1] the test system is POS-1 cells (mouse osteosarcoma cells). Kind of series: MTT cell survival assay: neutralizing cytotoxicity of the ferrous-salen complex compound. Format: cell-based. The following applies: 24 hours. The protocol:
The cells were collected 24 hours later and an MTT reagent for cell survival assay was administered, 400 μL of 0.04-mol of HCl/isopropyl alcohol was added 45 minutes later, 100 μL of the obtained mixture was dispensed to 96-well plates, and absorbance at 570 nm was measured, thereby calculating cell viability.
The cells were collected 24 hours later and the MTT reagent for cell survival assay was administered, 400 μL of 0.04-mol of HCl/isopropyl alcohol was added 45 minutes later, 100 μL of the obtained mixture was dispensed to 96-well plates, and absorbance at 570 nm was measured, thereby calculating cell viability.

Series [2] can be described thus: Calcein AM fluorescence (RFU) assay of chelation of the ferrous-salen complex compound by a metal chelating agent. The class given is biochemical. The following applies: for pEC50: Calcein AM, FIG. 1, read-out: EC50 (50% effective concentration of a maximum reaction value) of chelator, RFU recovery. The text has this: If calcein (Calcein: fluorescent indicator) is used solely, it emits light (an RFU value increases); however, if calcein binds with a ferrous-salen complex compound, light emission diminishes (the RFU value decreases). Accordingly, if deferoxamine (deferoximine: the above-mentioned structural formula (II)) exists, iron ions of the ferrous-salen complex compound are adsorbed by the deferoxamine and ferrous-salen ligands are detached from calcein. As a result, the amount of the calcein-divalent-iron-salen complex compound decreases and the light emission […]. You can tell that as an amount of emitted light […], the metal-salen complex compound combines with the metal chelating agent.
The ferrous-salen complex compound (M=Fe, R═R′═H) indicated as the aforementioned structural formula (III) was produced based on descriptions of WO 2010/058280. […] Subsequently, 15 μM deferoxamine was administered to this ferrous-salen complex compound—calcein AM complex—and measurement was performed one hour later by using a measuring device (parkinermar ARVO) (λexc=485 nm, λem=520 nm).
A 15 μM of deferoxamine and vitamin C was administered to the ferrous-salen complex compound—calcein AM complex—which was produced in Example 1 above and measurement was performed one hour later by using the measuring device (parkinermar ARVO) (λexc=485 nm, λem=520 nm). As a result, it was also confirmed that when the ferrous-salen complex compound was added to Calcein AM, the RFU (Relative Fluorescent Unit) value was low. However, it was confirmed that when the chelator (deferoxamine and vitamin C) continued to be added, the RFU value increased.

pEC50: −log10 of the molar value. Read-outs that look alike come from different tables or passages of the source.

`O=C(O)c1ccc(-n2nc(-c3ccccc3O)nc2-c2ccccc2O)cc1` [deferasirox, 4-[3,5-Bis(2-hydroxyphenyl)-1,2,4-triazol-1-yl]benzoic acid]: the “cell viability as chelator concentration increased (neutralization of toxicity)” value in series [1] (7.5 μM ferrous-salen complex compound (NBEI) plus deferasirox 0.1-15 μM, FIG. 2) was “increased”. The “deferasirox concentration at which the effect on cell viability did not change further” value in series [1] (7.5 μM ferrous-salen complex compound (NBEI)) was not below 1.8 µM.

Turning to `CC(=O)N(O)CCCCCNC(=O)CCC(=O)N(O)CCCCCNC(=O)CCC(=O)N(O)CCCCCN` [deferoxamine, (N-(5-aminopentyl)-N-hydroxy-N′-[5-(N-hydroxy-3-{[5-(N-hydroxyacetamido)pentyl]carbamoyl}propanamido)pentyl]butanediamide)], the “RFU (Relative Fluorescent Unit) value when the chelator continued to be added” value in series [2] (chelator added to ferrous-salen complex compound-calcein AM complex, measured one hour later, λexc=485 nm, λem=520 nm) is “increased”. Also, the pEC50 in series [2] (ferrous-salen complex compound (NBEI) 10 μM) was 6.01; in series [2] (ferrous-salen complex compound (NBEI) 50 μM), 5.79.

In the case of `[Fe+2].[O-]c1ccccc1C=NCCN=Cc1ccccc1[O-]` [ferrous-salen complex compound], the cell viability entry in series [1] (7.5 μM, control = 100%, FIG. 2) is given as “decreased”. The “RFU (Relative Fluorescent Unit) value when added to Calcein AM” value in series [2] (ferrous-salen complex compound added to Calcein AM, no chelator) was “low”.
